Assay results published in patent publication US20230015823A1, “METHODS OF ADMINISTERING VOXELOTOR” (Global Blood Therapeutics, Inc., priority 2019, published 2023).
“Also recorded” adds a separate entry of the source.

What was measured:
[1] = Phase 1 hepatic impairment study: safety evaluation (TEAEs); format: in vivo
Excerpt: This was a Phase 1, multiple-center, nonrandomized, open-label, parallel group study of a single oral dose of voxelotor administered in subjects with mild (Child-Pugh A; score 5 to 6 points), moderate (Child-Pugh B; score 7 to 9 points), or severe (Child-Pugh C; score 10 to 15 points) hepatic impairment and subjects with normal hepatic function. This study was designed to assess the effects of mild, moderate, or severe hepatic impairment on the PK of a single oral dose of voxelotor. Routine safety assessments (AE monitoring, vital signs, physical examinations, clinical laboratory tests, and ECGs) were performed.
Eligible subjects received a single oral dose of voxelotor 1500 mg (5×300-mg capsules) on Day 1 (for normal hepatic function, mild and moderate hepatic impairment). A lower dose of voxelotor 600 mg (2×300-mg capsules) was administered for the subjects with severe hepatic impairment.
Adverse events and concomitant medication use were monitored throughout the study. Safety assessments, including physical examinations, vital signs assessments, 12-lead ECGs, and clinical laboratory tests, were performed. Whole blood and plasma concentrations of voxelotor were determined using validated assays.
All statistical analyses were performed using the safety population. All AEs were coded to SOC and PT using MedDRA (Version 19.0) and presented by subject in data listings. A treatment-emergent AE was defined as an AE that was not present prior to treatment with study drug, but appeared following treatment or was present at treatment initiation but worsened during treatment. An AE that was present at treatment initiation but resolved and then reappeared while the subject was on treatment was a TEAE (regardless of the intensity of the AE when the treatment was initiated). Programmatically, an AE was classified as a TEAE if the start date and time occurred on or after the start date and time of first study drug dosing. The overall incidence of TEAEs (number and percentage of subjects) as well as the number of events were summarized by hepatic function group, severity, SAEs, causally related TEAE and SAEs, TEAEs leading to study or treatment discontinuation, life-threatening SAEs, and SAEs resulting in death.
The TEAEs were summarized and tabulated at both the subject (number [%] of subjects) and event (number of events) level: (1) by hepatic function group, SOC, and PT; (2) by hepatic function group, SOC, PT, and maximum reported severity; and (3) by hepatic function group, SOC, PT, and maximum relationship to study drug.

[2] = tested on: sickle cell disease (SCD) patients; assay: HOPE trial: efficacy in sickle cell disease; format: in vivo, human
Description: The efficacy and safety of OXBRYTA in sickle cell disease (SCD) was evaluated in HOPE, a randomized, double-blind, placebo-controlled, multicenter trial [NCT 03036813]. In this study, 274 patients were randomized to daily oral administration of OXBRYTA 1,500 mg (N=90), OXBRYTA 900 mg (N=92), or placebo (N=92). Patients were included if they had from 1 to 10 vasoocclusive crisis (VOC) events within 12 months prior to enrollment and baseline hemoglobin (Hb) ≥5.5 to ≤10.5 g/dL. Eligible patients on stable doses of hydroxyurea for at least 90 days were allowed to continue hydroxyurea therapy throughout the study. Randomization was stratified by patients already receiving hydroxyurea (yes, no), geographic region (North America, Europe, Other), and age (12 to <17 years, 18 to 65 years). The trial excluded patients who received red blood cell (RBC) transfusions within 60 days and erythropoietin within 28 days of enrollment, had renal insufficiency, uncontrolled liver disease, were pregnant, or lactating.
The majority of patients had HbSS or HbS/beta^0-thalassemia genotype (90%) and were receiving background hydroxyurea therapy (65%). The median age was 24 years (range: 12 to 64 years); 46 (17%) patients were 12 to <17 years of age. Median baseline Hb was 8.5 g/dL (5.9 to 10.8 g/dL). One hundred and fifteen (42%) had 1 VOC event and 159 (58%) had 2 to 10 events within 12 months prior to enrollment.
Efficacy was based on Hb response rate defined as a Hb increase of >1 g/dL from baseline to Week 24 in patients treated with OXBRYTA 1,500 mg versus placebo. […] No outlier subgroups were observed. The distribution of Hb change from baseline for individual patients completing 24 weeks of treatment with OXBRYTA 1,500 mg or placebo is depicted in FIG. 8.
Additional efficacy evaluation included change in Hb and percent change in indirect bilirubin and percent reticulocyte count from baseline to Week 24 (Table 4).

pregnant rats = assay: Embryo-fetal development study in pregnant rats; format: in vivo, rat
Description: (§1) In embryo-fetal development studies, voxelotor was administered orally to pregnant rats at 15, 50, and 250 mg/kg/day (gestation days 7 through 17) and rabbits at 25, 75, and 150 mg/kg/day (gestation days 7 through 19) through organogenesis.

pregnant rabbits = assay: Embryo-fetal development study in pregnant rabbits; format: in vivo, rabbit
Description: as §1

[3] = Effect of food on voxelotor PK; format: in vivo
[4] = Effect of acid reducing agent omeprazole on voxelotor; conditions: in vivo
[5] = tested on: bacterial reverse mutation; assay: Reverse mutation bacterial (Ames) test; format: cell-based
Excerpt: (§2) Voxelotor was not genotoxic in the reverse mutation bacterial (Ames) test, rat Comet assay, or rat micronucleus assay.

rat = assay: Rat Comet assay; format: in vivo
Excerpt: as §2

Structure (SMILES): CC(C)n1nccc1-c1ncccc1COc1cccc(O)c1C=O [voxelotor, 2-hydroxy-6-((2-(1-isopropyl-1H-pyrazol-5-yl)pyridin-3-yl)methoxy)benzaldehyde]
- deaths, SAEs, AEs leading to discontinuation ([1]; all hepatic function groups): No deaths, other serious adverse events (SAEs), and no AEs leading to discontinuation of the study were reported
- subjects reporting mild TEAEs ([1]; mild hepatic impairment, 4 of 7 subjects): 57.1%
- subjects reporting a moderate TEAE ([1]; moderate hepatic impairment, 1 of 7 subjects): 14.3%
- subjects with TEAE of diarrhea (mild) ([1]; moderate hepatic impairment, 1500 mg, 5 of 7 subjects): 71.4%
- subjects reporting mild TEAEs ([1]; moderate hepatic impairment, 5 of 7 subjects): 71.4%
- TEAEs ([1]; normal hepatic function, 1500 mg): No TEAEs were reported
- subjects with diarrhea (most frequently reported TEAE) ([1]; overall, 7 events in 7 subjects): 25%
- subjects reporting TEAEs ([1]; overall, 11 subjects, 17 TEAEs): 39.3%
- subjects with TEAEs possibly/probably related to study drug ([1]; overall, seven subjects, 8 TEAEs): 25.0%
- subjects reporting a mild TEAE and a moderate TEAE ([1]; severe hepatic impairment, 600 mg, 1 of 7 subjects): 14.3%
- safety and tolerability ([1]; single oral dose 1500 mg (mild, moderate, normal) or 600 mg (severe hepatic impairment)): safe and well tolerated
- Hemoglobin, adjusted mean change from baseline to Week 24 ([2]; 1,500 mg QD (N = 90)): 1.14 g/dL
- Indirect Bilirubin, adjusted mean percent change from baseline to Week 24 ([2]; 1,500 mg QD (N = 90)): −29.08%
- Percent Reticulocyte Count, adjusted mean percent change from baseline to Week 24 ([2]; 1,500 mg QD (N = 90)): −19.93%
- Hb response rate (Hb increase of >1 g/dL from baseline to Week 24) ([2]; 1,500 mg daily oral, 46/90, placebo 6.5%): 51.1%
- adverse developmental outcomes (pregnant rats; pregnant rats, oral 15, 50, 250 mg/kg/day, gestation days 7 through 17): no adverse developmental effects; also recorded: no evidence of adverse developmental outcomes
- exposure at highest dose level (maternal toxicity observed) relative to exposure in patients at the recommended daily dose (pregnant rats; rats, 250 mg/kg/day): 2.8 times
- adverse developmental outcomes (pregnant rabbits; pregnant rabbits, oral 25, 75, 150 mg/kg/day, gestation days 7 through 19): no adverse developmental effects; also recorded: no evidence of adverse developmental outcomes
- exposure at highest dose level (maternal toxicity observed) relative to exposure in patients at the recommended daily dose (pregnant rabbits; rabbits, 150 mg/kg/day): 0.3 times
- increase of AUC with high-fat, high-calorie meal relative to fasted state ([3]; plasma): 42%
- increase of Cmax with high-fat, high-calorie meal relative to fasted state ([3]; plasma): 95%
- increase of AUC with high-fat, high-calorie meal relative to fasted state ([3]; whole blood): 42%
- increase of Cmax with high-fat, high-calorie meal relative to fasted state ([3]; whole blood): 45%
- effect of co-administered omeprazole (proton pump inhibitor) on voxelotor exposure [4]: did not alter voxelotor exposure
- genotoxicity [5]: not genotoxic
- genotoxicity (rat): not genotoxic
